Measured values published in article PMC4728126, “Stable G protein-effector complexes in striatal neurons: mechanism of assembly and role in neurotransmitter signaling” (eLife, 2015).

Biological target: T1, D1R (Homo sapiens, UniProt P21728)
T1 construct: gene DRD1; cDNA from Missouri S&T cDNA Resource Center, transiently expressed in HEK293T/17 with Golf (Gαolf, Venus-Gβ2γ7), Ric-8B and masGRK3ct-Nluc BRET reporter
Test: BRET G protein activation assay (masGRK3ct-Nluc / Venus-Gβ[…]γ[…]), HEK293T/[…]
Type: cell-based
Conditions: antagonist, […], against […] dopamine; Golf co-expressed

T1 sequence (P21728 whole entry): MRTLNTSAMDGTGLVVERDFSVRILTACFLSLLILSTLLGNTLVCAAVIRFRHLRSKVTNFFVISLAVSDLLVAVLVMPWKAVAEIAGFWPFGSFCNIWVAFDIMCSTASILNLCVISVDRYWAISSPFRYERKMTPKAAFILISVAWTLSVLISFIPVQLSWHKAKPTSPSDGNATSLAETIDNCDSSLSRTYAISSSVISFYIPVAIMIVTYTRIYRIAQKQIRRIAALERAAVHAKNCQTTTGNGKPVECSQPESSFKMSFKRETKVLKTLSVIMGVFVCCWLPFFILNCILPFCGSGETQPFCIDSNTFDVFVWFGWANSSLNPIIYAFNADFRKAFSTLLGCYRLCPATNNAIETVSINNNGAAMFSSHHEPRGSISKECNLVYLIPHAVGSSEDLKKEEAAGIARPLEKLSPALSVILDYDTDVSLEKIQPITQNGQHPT

**Q.** With `CN1CCc2cc(Cl)c(O)cc2[C@H]2c3ccccc3CC[C@@H]21` [SCH39166] as the molecule, how does the “BRET G protein activation assay (masGRK3ct-Nluc / Venus-Gβ2γ7), HEK293T/17” value read?
**A.** Its value is “application of an antagonist SCH39166 facilitates complex re-association and quenching of the BRET response”.
